Test [1] can be described thus: DPPH radical scavenging test (free-radical trapping). The format is biochemical. Conditions: DPPH 0,5mM, 37°C, 30 minutes, absorbance at 517 nm; for % inhibition (C=25µM): compound 25µM; for % inhibition (C=80µM): compound 80µM; for % inhibition (C=): compound. As for the experimental part: Cette étude mesure l'activité antiradicalaire d'un composé par capture du radical DPPH. Ce test est largement utilisé pour étudier la capacité d'un composé à donner un hydrogène.
L'activité se traduit par une décoloration du DPPH (violet). L'absorbance (densité optique DO) a été mesurée à 517 nm au bout de trente minutes sur un spectrophotomètre UV-visible thermostaté à 37°C. Le résultat est exprimé en pourcentage d'inhibition déterminé par la formule : [formula]
Cette activité a été comparée à celle des produits de référence vitamine E, acide férulique et vinylogue de l'acide férulique [dérivé (17)].

A short description of test [2]: Auto-oxidation by the ferric thiocyanate (FTC) method: AAPH-induced lipid peroxidation of linoleic acid. As to conditions: 25 micromoles; absorbance at 500nm versus time over five hours; activity not superior to that of acide férulique. Type of test: biochemical. The text has this: Cette méthode met en évidence la capacité de capter le radical peroxyle par le dérivé à tester. La méthode est basée sur une peroxydation lipidique de l'acide linoléique, émulsionné par le Tween 20®.
Cette peroxydation est réalisée par action d'un initiateur de radicaux libres, le dihydrochlorhydrate de 2,2'-azobis(2-amidino)propane (AAPH). Le radical peroxyle formé réagit avec le dérivé à tester et conduit à la formation d'un hydroperoxyde et d'un radical alkoxyle ArO˙. Ce dernier réagit avec le radical peroxyle et permet la formation de produits non radicalaires.
Par ailleurs, les radicaux peroxyle continuent d'oxyder le substrat (l'acide linoléique) pour former également un hydroperoxyde. Cet hydroperoxyde oxyde le fer ferreux présent in situ pour conduire à la formation de fer ferrique Fe^3+ qui se complexe à l'anion thiocyanate.
Le complexe rouge de thiocyanate ferrique formé absorbe à 500nm.
Le degré d'oxydation est quantifié par l'absorbance mesurée. L'activité antioxydante du dérivé à tester est donc la capacité à retarder la peroxydation lipidique. Plus la durée pour atteindre le maximum d'absorbance est longue, plus l'antioxydant est puissant.
Cette étude est réalisée sur une période de cinq heures avec un intervalle de temps d'une heure. Le résultat est exprimé par l'absorbance en fonction du temps. La concentration des molécules dans le milieu est de 25 micromoles.

Consider `COc1cc(/C=C/C(=O)O)ccc1O` [Acide férulique, reference compound], for which, in test [1], the “% inhibition (C=25µM)” value is recorded as 50%, the “% inhibition (C=80µM)” value is on record as 78% and the “% inhibition (C=)” value is given as 61%.
Taken in the same sequence, the figures for `Cc1c(C)c2c(c(C)c1O)CC[C@@](C)(CCC[C@H](C)CCC[C@H](C)CCCC(C)C)O2` [Vit.E, vitamine E, reference compound] were 41%, 92% and 86%.
Take `COC(=O)c1scc(C)c1NC(=O)/C=C/c1ccc(O)c(OC)c1` [compound 3, 3-{[(2E)-3-(4-hydroxy-3-méthoxyphényl)prop-2-ènoyl]amino}-4-méthylthiophène-2-carboxylatede méthyle]: the activité antioxydante entry in test [2] is “ont une activité antioxydante”. In test [1], the “% inhibition (C=25µM)” value is 45%, the “% inhibition (C=80µM)” value was found to be 72% and the “% inhibition (C=)” value is reported as 48%.
In the same order, the values of `COc1cc(/C=C/C(=O)Nc2c(C)csc2C(=O)O)ccc1O` [compound 4, Acide 3-{[(2E)-3-(4-hydroxy-3-méthoxyphényl)prop-2-ènoyl]amino}-4-méthylthiophène-2-carboxylique] are “ont une activité antioxydante”, 41%, 50% and 31%.
With `COc1cc(/C=C/C=C/C(=O)O)ccc1O` [compound 17, Acide (2E,4E)-5-[4-hydroxy-3-méthoxyphényl]penta-2,4-diénoique, reference compound], in test [1], the “% inhibition (C=25µM)” value is 62%, the “% inhibition (C=80µM)” value is reported as 81% and the “% inhibition (C=)” value is 65%.
With `COC(=O)c1scc(C)c1NC(=O)/C=C/C=C/c1ccc(O)c(OC)c1` [compound 21, 3-{[(2E,4E)-5-(4-hydroxy-3-méthoxyphényl)penta-2,4-diènoyl]amino}-4-méthylthiophène-2-carboxylatede méthyle], the activité antioxydante result in test [2] was “ont une activité antioxydante”. In test [1], the “% inhibition (C=25µM)” value is on record as 68%, the “% inhibition (C=80µM)” value was 93% and the “% inhibition (C=)” value is given as 74%.
In the same order, the values of `COc1cc(/C=C/C=C/C(=O)Nc2c(C)csc2C(=O)O)ccc1O` [compound 22, Acide 3-{[(2E,4E)-5-(4-hydroxy-3-méthoxyphényl)penta-2,4-diènoyl]amino}-4-méthylthiophène-2-carboxylique] are “ont une activité antioxydante”, 50%, 73% and 54%.

Source of the values: patent publication EP2556062B1, “AMIDE DERIVATIVES OF AVENALUMIC ACID, PROCESS FOR PREPARING SAME AND COSMETIC COMPOSITIONS CONTAINING SAME” (Produits Chimiques Auxiliaires et de Synthese, priority 2010, dated 2011).
